Results reported in US20020159980A1, “Benomyl tolerant fusarium lateritium and uses thereof” (priority 2001, published 2002).

Assays:
E. lata = experiment: Grapevine bioassays in the presence of benomyl: E. lata colonization; type: cell-based, Eutypa lata; details: 26° C., 10 days; for E. lata colonization: treatment E. lata alone
Procedure: Bioassays were also completed to evaluate the tolerance of the BR F. lateritium strain and E. lata to benomyl when applied to grapevine segments. Benomyl concentrations tested included 0, 10, 100 and 1000 μg/ml at 50 μl aliquots per segment. Bioassays were inoculated with 20 μl aliquots of broth from 4 to 5 day old shake flask cultures of BR F. lateritium and E. lata. The F. lateritium shake flask cultures yielded approximately 4.5×10^5 cells/ml. Segments were inoculated first with benomyl and then with E. lata and BR F. lateritium. All inoculations were completed within one hour in a laminar flow hood. These bioassays were incubated at 26° C. for 10 days.
After incubation, segments were removed from the water agar, split in half and surface disinfected for ½ hour in a 2.5% sodium hypochlorite solution. The split segments were plated on PDA and monitored for E. lata presence after 5 days. All bioassays were performed in triplicate. Positive and negative controls were performed for each bioassay. Mean percent infection levels and standard errors about the mean were calculated for each treatment.

[1] = test system: F. lateritium and E. armeniacae; details: reported by Carter et al.; cited from earlier work

In the case of `CCCCNC(=O)n1c(NC(=O)OC)nc2ccccc21` [benomyl, 1-(butylcarbomyl)-2-benzimidazole carbamate], the “benomyl concentration applied to the segments at which E. lata did not colonize” value (E. lata; grapevine segments) is reported as “exceeded 100 μg/ml”, the E. lata colonization (E. lata; benomyl 10 μg/ml) is reported as 100% and the E. lata colonization (E. lata; benomyl 100 μg/ml) is reported as 90%. The E. lata colonization (E. lata; benomyl 1000 μg/ml) was 0% and the “differential sensitivities of F. lateritium and E. armeniacae to benomyl” value [1] was “approximately 10 fold”.
